# Source: ChEMBL document CHEMBL1151541, “Modified thrombin receptor-agonist peptide ligands. Synthesis and conformational analysis of analogs of the N-terminal tripeptide region” (1995)
# Numbered stars: 1 amine (or outer) side, 2 acyl side, 3 side chain; on linkers, the order of the positions; unused ones are H or OH. Square brackets hold non-standard residues; d marks the D form. Peptide text beside a SMILES is read from it. * marks the point of attachment. ξ: configuration not given here. X2 = N[C@@H](CO)C(=O)CN([C@@H](Cc1ccccc1)C(=O)[*:2])[*:1]; X3 = C[C@@H](c1ccccc1)[C@H](N[*:1])C(=O)[*:2]; NMe2Phe = CN(C)[C@@H](Cc1ccccc1)C(=O)*; NEtPhe = CCN[C@@H](Cc1ccccc1)C(=O)O; X1 = CCN(CC)[C@@H](Cc1ccccc1)C(=O)*; NMeF = CN[C@@H](Cc1ccccc1)C(=O)O; Tic = O=C(O)[C@@H]1Cc2ccccc2CN1; Aib = CC(C)(N)C(=O)O; Propionyl = CCC(=O)*; Butyryl = CCCC(=O)*; ξLac = CC(O)C(=O)O; For = O=C*
# Organism: Homo sapiens
# Experiment: Agonist activity in human platelet aggregation
# Format: functional
# Conditions: read-out: ED50 (the source's name)
row,EC50 [µM],Compound
1,1.6,CC(C)C[C@H](NC(=O)[C@H]1CCCN1C(=O)[C@@H](NC(=O)[C@@H](N)CO)[C@H](C)c1ccccc1)C(=O)N[C@@H](CCCN=C(N)N)C(=O)N[C@@H](CC(N)=O)C(=O)O
2,2,CC(C)C[C@H](NC(=O)[C@H](CC(C)C)NC(=O)[C@@H](NC(=O)[C@@H](N)CO)[C@H](C)c1ccccc1)C(=O)N[C@@H](CCCN=C(N)N)C(=O)N[C@@H](CC(N)=O)C(=O)O
3,> 1000,CC(C)C[C@H](NCC(=O)[C@H](Cc1ccccc1)NC(=O)[C@@H](N)CO)C(=O)N[C@@H](CC(C)C)C(=O)N[C@@H](CCCN=C(N)N)C(=O)N[C@@H](CC(N)=O)C(=O)O
4,216,CC(C)C[C@H](NC(=O)[C@H]1CCCN1C(=O)[C@@H](NC(=O)[C@@H](N)CO)[C@@H](C)c1ccccc1)C(=O)N[C@@H](CCCN=C(N)N)C(=O)N[C@@H](CC(N)=O)C(=O)O
5,> 1000,CC(C)C[C@H](NC(=O)[C@H](CC(C)C)NC(=O)[C@H](Cc1ccccc1)N(C)C(=O)[C@@H](N)CO)C(=O)N[C@@H](CCCN=C(N)N)C(=O)N[C@@H](CC(N)=O)C(=O)O
6,169,CC(C)C[C@H](NC(=O)[C@H](CC(C)C)NC(=O)[C@](C)(Cc1ccccc1)NC(=O)[C@@H](N)CO)C(=O)N[C@@H](CCCN=C(N)N)C(=O)N[C@@H](CC(N)=O)C(=O)O
7,5.3,CC(C)C[C@H](NC(=O)[C@H]1CCCN1C(=O)[C@H](Cc1ccccc1)NC(=O)[C@@H](N)CO)C(=O)N[C@@H](CCCN=C(N)N)C(=O)N[C@@H](CC(N)=O)C(=O)O
8,70,CC(C)C[C@H](NC(=O)[C@H](CC(C)C)N(C)C(=O)[C@H](Cc1ccccc1)NC(=O)[C@@H](N)CO)C(=O)N[C@@H](CCCN=C(N)N)C(=O)N[C@@H](CC(N)=O)C(=O)O
9,0.92,CC(C)C[C@H](NC(=O)[C@H](CC(C)C)NC(=O)[C@H](Cc1ccccc1)NC(=O)[C@@H](N)CO)C(=O)N[C@@H](CCCN=C(N)N)C(=O)N[C@@H](CC(N)=O)C(=O)O
10,75.1,CCCC(=O)N[C@@H](Cc1ccccc1)C(=O)N[C@@H](CC(C)C)C(=O)N[C@@H](CC(C)C)C(=O)N[C@@H](CCCN=C(N)N)C(=O)N[C@@H](CC(N)=O)C(=O)O (Butyryl-FLLRN-OH)
11,62.4,CC(C)C[C@H](NC(=O)[C@H](Cc1ccccc1)NC=O)C(=O)N[C@@H](CC(C)C)C(=O)N[C@@H](CCCN=C(N)N)C(=O)N[C@@H](CC(N)=O)C(=O)O (For-FLLRN-OH)
12,> 1000,CC(C)C[C@H](NC(=O)C(C)(C)NC(=O)[C@H](Cc1ccccc1)NC(=O)[C@@H](N)CO)C(=O)N[C@@H](CCCN=C(N)N)C(=O)N[C@@H](CC(N)=O)C(=O)O (H-SF[Aib]LRN-OH)
13,4.6,CC(C)C[C@H](NC(=O)[C@@H]1Cc2ccccc2CN1C(=O)[C@H](Cc1ccccc1)NC(=O)[C@@H](N)CO)C(=O)N[C@@H](CCCN=C(N)N)C(=O)N[C@@H](CC(N)=O)C(=O)O (H-SF[Tic]LRN-OH)
14,> 1000,CC(C)C[C@H](NC(=O)[C@H](CC(C)C)NC(=O)[C@@H]1Cc2ccccc2CN1C(=O)[C@@H](N)CO)C(=O)N[C@@H](CCCN=C(N)N)C(=O)N[C@@H](CC(N)=O)C(=O)O (H-S[Tic]LLRN-OH)
15,27,CC(C)C[C@H](NC(=O)[C@H](CC(C)C)NC(=O)[C@@H](NC(=O)[C@@H](N)CO)[C@@H](C)c1ccccc1)C(=O)N[C@@H](CCCN=C(N)N)C(=O)N[C@@H](CC(N)=O)C(=O)O (H-S[X3]LLRN-OH)
16,> 1000,CCN[C@@H](Cc1ccccc1)C(=O)N[C@@H](CC(C)C)C(=O)N[C@@H](CC(C)C)C(=O)N[C@@H](CCCN=C(N)N)C(=O)N[C@@H](CC(N)=O)C(=O)O (H-[NEtPhe]LLRN-OH)
17,> 1000,CN[C@@H](Cc1ccccc1)C(=O)N[C@@H](CC(C)C)C(=O)N[C@@H](CC(C)C)C(=O)N[C@@H](CCCN=C(N)N)C(=O)N[C@@H](CC(N)=O)C(=O)O (H-[NMeF]LLRN-OH)
18,382,CC(C)C[C@H](NC(=O)[C@H](Cc1ccccc1)NCC(=O)[C@@H](N)CO)C(=O)N[C@@H](CC(C)C)C(=O)N[C@@H](CCCN=C(N)N)C(=O)N[C@@H](CC(N)=O)C(=O)O (H-[X2]LLRN-OH)
19,49,CNC(=O)C[C@H](NC(=O)[C@H](CCCN=C(N)N)NC(=O)[C@H](CC(C)C)NC(=O)[C@H](CC(C)C)NC(=O)[C@H](Cc1ccccc1)NC(=O)C(C)O)C(=O)O (some centres undefined) (H-[ξLac]FLLRD(NHMe)-OH)
20,> 1000,CC(C)C[C@H](NC(=O)[C@H](CC(C)C)NC(=O)[C@H](Cc1ccccc1)N(C)C)C(=O)N[C@@H](CCCN=C(N)N)C(=O)N[C@@H](CC(N)=O)C(=O)O (NMe2Phe-LLRN-OH)
21,35,CCC(=O)N[C@@H](Cc1ccccc1)C(=O)N[C@@H](CC(C)C)C(=O)N[C@@H](CC(C)C)C(=O)N[C@@H](CCCN=C(N)N)C(=O)N[C@@H](CC(N)=O)C(=O)O (Propionyl-FLLRN-OH)
22,> 1000,CCN(CC)[C@@H](Cc1ccccc1)C(=O)N[C@@H](CC(C)C)C(=O)N[C@@H](CC(C)C)C(=O)N[C@@H](CCCN=C(N)N)C(=O)N[C@@H](CC(N)=O)C(=O)O (X1-LLRN-OH)
23,84.5,Ac-FLLRN-OH
24,14.8,H-SFGLRN-OH
